Tests used:
[1] = test system: enzyme associated with Bacillus stearothermophilus spores; experiment: Rapid enzyme fluorescence readout of dual rapid readout indicators after prevacuum steam sterilization; format: biochemical; details: 4-pulse prevacuum steam 121° C.; for FLUORESCENCE - PERCENT POSITIVE 1 HR / FLUORESCENCE - PERCENT POSITIVE 2 HR / FLUORESCENCE - PERCENT POSITIVE 3 HR / FLUORESCENCE - PERCENT POSITIVE 4 HR / FLUORESCENCE - PERCENT POSITIVE 5 HR / FLUORESCENCE - PERCENT POSITIVE 6 HR: 7–13 min
Protocol: (§1) The indicators prepared for the Examples were dual rapid readout indicators that provided both a rapid, enzyme-based efficacy test and a confirmatory spore outgrowth test. Spores coated on the carrier strip 16 served as the source of active enzyme whose activity was measured by the rapid enzyme test. These same spores were then incubated in the spore outgrowth portion of the test.
(§2) Bacillus stearothermophilus, commercially available as ATCC 7953 from American Type Culture Collection, Rockville, Md., was grown overnight (16 hours) at 58° C. in tryptic soy broth. This culture was used to inoculate the surface of agar plates consisting of 8 g/l nutrient broth, 4 g/l yeast extract, 0.1 g/l manganese chloride and 20 g/l agar at pH 7.2. Plates were incubated at 58° C. for 72 hours. Spores were scraped from the plates and suspended in sterile distilled water. The spores were separated from the vegetative debris by centrifuging the suspension at 7000 rpm and 4° C. for 20 minutes. The supernatant was poured off and the spores were resuspended in sterile distilled water. The cleaning procedure was repeated several times. After the final wash, the spores were suspended in sterile distilled water, at a concentration of approximately 1×10^8 spores per milliliter.
(§3) The spores were then treated with the chemicals identified in Tables 1–5. All chemicals tested were obtained from commercial sources. The spores were centrifuged at 6000 rpm for 10 minutes. The supernatant and coating chemical mixtures were heated at 60–80° C. for several minutes and vortexed to get the material into solution. The spores were then mixed into the sterilant-resistant chemical solution. The sterilant-resistant chemical solution was applied to 5×25 mm, 591 A paper strips (Schleicher & Schuell, Inc., Keene, N.H.) by pipetting 10–15 microliters to each strip for a final population of about 1×10^6 spores per strip. The strips were dried 16 hours at 37° C.
(§4) The treated spore strips were placed on the bottom of the outer container 12 of the indicator 10 and a barrier was inserted between the spore strip 16 and the inner container 18, which contained enzyme substrate. A […] ( 11/16 inch) disc of polypropylene blown microfiber material, with a weight of 200 g/m^2, commercially available as “THINSULATE™ 200-B brand Thermal Insulation” from 3M Company, St. Paul, Minn., was used as the barrier. The inner container 18 contained 0.67 ml nutrient medium, consisting of 17 g of a bacteriological peptone and a 0.17 g/l of L-alanine, as well as 0.1 g 4-methylumbelliferyl-alpha-D-glucoside, commercially available from Sigma Chemical Company, St. Louis, Mo., dissolved in 200 microliters of N,N-dimethylformamide, and 0.03 g bromocresol purple pH indicator dye, per liter of water. The pH of the enzyme substrate and nutrient medium solution was adjusted to 7.6 with 0.1N sodium hydroxide.
(§5) Sterilization indicators were made as described above with each of the chemicals and concentrations described in Table 1. Control indicators were made using untreated spores. The indicators were placed in metal instrument trays and exposed at 121° C. in a Getinge Steam Sterilizer (Getinge International, Inc., 1100 Towbin Ave., Lakewood, N.J.) using a 4-pulse prevacuum cycle at 121° C. with a vacuum level of 0.075–0.085 bar and a steam pulse to 1.00 bar for each pulse. Indicators were exposed in the sterilizer for between 7 and 13 minutes. This cycle is depicted in the time-pressure diagram in FIG. 5. After exposure the inner containers containing the enzyme substrate and nutrient medium were crushed and the indicators were incubated at 60° C. The indicators were examined for fluorescence using a 3M™ ATTEST™ Model 190 Rapid Autoreader, commercially available from 3M Company, St. Paul, Minn. Additionally, spore growth, as indicated by a color change from purple to yellow, was determined visually after 168 hours of incubation at 60° C. […]

[2] = test system: Bacillus stearothermophilus spores; experiment: Spore outgrowth (color change) of indicators after prevacuum steam sterilization; format: cell-based; details: 4-pulse prevacuum steam 121° C., 7–13 min
Protocol: as §1, §2, §3, §4, §5

## OCC(O)COCC(O)COCC(O)CO (stereo not drawn) [Triglycerol]
[1]
  accuracy of sterilization indicators compared to indicators made with untreated spores: did not improve the accuracy
[1]; Example 2, 5 mg/ml coating
  FLUORESCENCE - PERCENT POSITIVE 1 HR: 0%
  FLUORESCENCE - PERCENT POSITIVE 2 HR: 0%
  FLUORESCENCE - PERCENT POSITIVE 3 HR: 0%
  FLUORESCENCE - PERCENT POSITIVE 4 HR: 10.0%
  FLUORESCENCE - PERCENT POSITIVE 5 HR: 30.0%
  FLUORESCENCE - PERCENT POSITIVE 6 HR: 40.0%
[1]; Example 2, 10 mg/ml coating
  FLUORESCENCE - PERCENT POSITIVE 1 HR: 0%
  FLUORESCENCE - PERCENT POSITIVE 2 HR: 6.7%
  FLUORESCENCE - PERCENT POSITIVE 3 HR: 20.0%
  FLUORESCENCE - PERCENT POSITIVE 4 HR: 26.7%
  FLUORESCENCE - PERCENT POSITIVE 5 HR: 53.3%
  FLUORESCENCE - PERCENT POSITIVE 6 HR: 60.0%
[1]; Example 2, 20 mg/ml coating
  FLUORESCENCE - PERCENT POSITIVE 1 HR: 0%
  FLUORESCENCE - PERCENT POSITIVE 2 HR: 0%
  FLUORESCENCE - PERCENT POSITIVE 3 HR: 8.3%
  FLUORESCENCE - PERCENT POSITIVE 4 HR: 29.2%
  FLUORESCENCE - PERCENT POSITIVE 5 HR: 41.7%
  FLUORESCENCE - PERCENT POSITIVE 6 HR: 45.8%
[1]; Example 2, 40 mg/ml coating
  FLUORESCENCE - PERCENT POSITIVE 1 HR: 0%
  FLUORESCENCE - PERCENT POSITIVE 2 HR: 0%
  FLUORESCENCE - PERCENT POSITIVE 3 HR: 29.6%
  FLUORESCENCE - PERCENT POSITIVE 4 HR: 48.1%
  FLUORESCENCE - PERCENT POSITIVE 5 HR: 51.9%
  FLUORESCENCE - PERCENT POSITIVE 6 HR: 63.0%
[1]; Example 2, 80 mg/ml coating
  FLUORESCENCE - PERCENT POSITIVE 1 HR: 0%
  FLUORESCENCE - PERCENT POSITIVE 2 HR: 3.2%
  FLUORESCENCE - PERCENT POSITIVE 3 HR: 38.7%
  FLUORESCENCE - PERCENT POSITIVE 4 HR: 51.6%
  FLUORESCENCE - PERCENT POSITIVE 5 HR: 58.1%
  FLUORESCENCE - PERCENT POSITIVE 6 HR: 64.5%
[2]; Example 2, 5 mg/ml coating
  NO. GROWTH POSITIVE 168 HR: 10
[2]; Example 2, 10 mg/ml coating
  NO. GROWTH POSITIVE 168 HR: 15
[2]; Example 2, 20 mg/ml coating
  NO. GROWTH POSITIVE 168 HR: 24
[2]; Example 2, 40 mg/ml coating
  NO. GROWTH POSITIVE 168 HR: 27
[2]; Example 2, 80 mg/ml coating
  NO. GROWTH POSITIVE 168 HR: 31

## POE(10) Phytosterol
[1]; Example 5, 50 mg/ml coating
  FLUORESCENCE - PERCENT POSITIVE 1 HR: 0%
  FLUORESCENCE - PERCENT POSITIVE 2 HR: 0%
  FLUORESCENCE - PERCENT POSITIVE 3 HR: 0%
  FLUORESCENCE - PERCENT POSITIVE 4 HR: 0%
[2]; Example 5, 50 mg/ml coating
  NO. GROWTH POSITIVE 168 HR: 2

## Decaglyceryl Diisostearate
[1]
  accuracy of sterilization indicators compared to indicators made with untreated spores: improved
[1]; Example 5, 50 mg/ml coating
  FLUORESCENCE - PERCENT POSITIVE 1 HR: 30%
  FLUORESCENCE - PERCENT POSITIVE 2 HR: 80.0%
  FLUORESCENCE - PERCENT POSITIVE 3 HR: 100%
  FLUORESCENCE - PERCENT POSITIVE 4 HR: 100%
[1]; Example 5, 100 mg/ml coating
  FLUORESCENCE - PERCENT POSITIVE 1 HR: 28.6%
  FLUORESCENCE - PERCENT POSITIVE 2 HR: 100.0%
  FLUORESCENCE - PERCENT POSITIVE 3 HR: 100%
  FLUORESCENCE - PERCENT POSITIVE 4 HR: 100%
[2]; Example 5, 50 mg/ml coating
  NO. GROWTH POSITIVE 168 HR: 10
[2]; Example 5, 100 mg/ml coating
  NO. GROWTH POSITIVE 168 HR: 14

## polyoxyethylene (5) glyceryl monostearate [POE (5) Glyceryl Monostearate]
[1]
  accuracy of sterilization indicators compared to indicators made with untreated spores: improved
[1]; Example 5, 50 mg/ml coating
  FLUORESCENCE - PERCENT POSITIVE 1 HR: 0%
  FLUORESCENCE - PERCENT POSITIVE 2 HR: 100.0%
  FLUORESCENCE - PERCENT POSITIVE 3 HR: 100.0%
  FLUORESCENCE - PERCENT POSITIVE 4 HR: 100.0%
[1]; Example 5, 100 mg/ml coating
  FLUORESCENCE - PERCENT POSITIVE 1 HR: 0%
  FLUORESCENCE - PERCENT POSITIVE 2 HR: 100%
  FLUORESCENCE - PERCENT POSITIVE 3 HR: 100%
  FLUORESCENCE - PERCENT POSITIVE 4 HR: 100%
[2]; Example 5, 50 mg/ml coating
  NO. GROWTH POSITIVE 168 HR: 15
[2]; Example 5, 100 mg/ml coating
  NO. GROWTH POSITIVE 168 HR: 5
